Data on four compounds can be found in US7445790B2, “External preparations for skin” (Shiseido Company, Ltd., priority 2002, dated 2008).

The structures appear in SMILES notation.

The nature of series [1]: IOB value of the oil component. Format: physicochemical. The conditions noted are these: obtained oil component.
Series [2] in a line: Solubility of a slightly soluble triazine-type ultraviolet absorbent in oil components at 0° C. The conditions noted are these: concentration (mass percentage) in a saturated solution at 0° C. of 2,4-bis{[4-(2-ethylhexyloxy)-2-hydroxy]phenyl}-6-(4-methoxyphenyl)1,3,5-triazine in the oil component. Format: physicochemical.
From the text: (§1) For the slightly soluble ultraviolet absorbent, a triazine-type ultraviolet absorbent 2,4-bis{[4-(2-ethylhexyloxy)-2-hydroxy]phenyl}-6-(4-methoxyphenyl)1,3,5-triazine was used.
This oil component is a mixture of alkyl benzoates having 12-15 carbon atoms.
as §1

Regarding `CCCCC(CC)COC(=O)c1ccccc1` (centres unmarked) [2-ethylhexyl benzoate], the IOB value in series [1] was determined as 0.26. Same read-out and setting: in the case of `CC(CCOC(=O)c1ccccc1)CC(C)(C)C` (centres unmarked) [3,5,5-trimethylhexyl benzoate] it was 0.26; in that of `CC(C)CCCC(C)CCOC(=O)c1ccccc1` (centres unmarked) [3,7-dimethyloctyl benzoate], 0.23. As to `C[Si]1(C)O[Si](C)(C)O[Si](C)(C)O[Si](C)(C)O[Si](C)(C)O1` [Decamethyl cyclopentane siloxane], the Solubility in series [2] (Table 1-4) and in series [2] (Table 2-1) was 0% in each case.
